One data set addresses Cholylglycine Hydrolase (Clostridium perfringens, UniProt P54965). Conditions: compared with plasma, liver or intestine.
The next data set addresses T1, LBAT (Homo sapiens, UniProt Q14973).
T1 sequence (Q14973 1-349): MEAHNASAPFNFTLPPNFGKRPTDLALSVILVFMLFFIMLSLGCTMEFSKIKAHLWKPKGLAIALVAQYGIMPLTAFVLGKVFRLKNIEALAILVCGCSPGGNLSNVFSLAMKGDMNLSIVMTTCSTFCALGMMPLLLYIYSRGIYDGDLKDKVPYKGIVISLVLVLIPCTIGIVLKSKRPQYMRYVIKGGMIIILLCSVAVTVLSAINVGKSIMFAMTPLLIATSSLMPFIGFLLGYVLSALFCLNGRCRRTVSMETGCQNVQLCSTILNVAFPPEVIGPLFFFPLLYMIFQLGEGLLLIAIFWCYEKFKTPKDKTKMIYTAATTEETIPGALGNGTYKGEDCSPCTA
In words: Electrogenic transport in Xenopus oocytes expressing LBAT. Format: cell-based. The text has this: RNA preparation: Human IBAT and LBAT Transporter cDNAs were subcloned into a modified pGEM plasmid that contains 5′ and 3′ untranslated sequences from the Xenopus β-actin gene. These sequences increase RNA stability and protein expression. Plasmid cDNA was linearized and used as template for in vitro transcription (Epicentre Technologies transcription kit, 4:1 methylated:non-methylated GTP).
Xenopus oocyte isolation. Xenopus laevis frogs were anesthetized by immersion in Tricaine ([…] in deionized water) for 15 min. Oocytes were removed and digested in frog ringer solution (90 mM NaCl, 2 mM KCl, 1 mM MgCl2, 10 mM NaHEPES, pH 7.45, no CaCl2) with 1 mg/mL collagenase (Worthington Type 3) for 80-100 min with shaking. The oocytes were washed 6 times, and the buffer changed to frog ringer solution containing CaCl2 (1.8 mM). Remaining follicle cells were removed if necessary. Cells were incubated at 16° C., and each oocyte injected with […] RNA in […] solution.
Electrophysiology measurements. Transport currents were measured 2-14 days after injection, using a standard two-electrode electrophysiology set-up (Geneclamp 500 amplifier, Digidata 1320/PCLAMP software and ADInstruments hardware and software were used for signal acquisition). Electrodes ([…]) were microfabricated using a Sutter Instrument puller and filled with 3M KCl. […]

For data set [1], the target named is T2, IBAT (Homo sapiens, UniProt Q12908). In words: Inhibition of radiolabeled taurocholate uptake in IBAT-transfected CHO cells. In kind it is cell-based. Set-up: expressed in transfected cells; host or cells: CHO cells. The conditions noted are these: radiolabeled competition assay in transporter-expressing CHO cells. On the procedure: CHO cells transfected with either the IBAT or LBAT transporter were seeded into 96-well microtiter plates at 100,000 cells/well in 100 μL DMEM containing 10% serum, glutamine and Penstrep. After overnight incubation the media was removed and test compound (25 μL) added at 2× the final desired concentration. Tritiated taurocholate (50,000 CPM/well) was diluted with cold substrate to a final concentration of 5 μM and 25 μL/well of this mixture was added to the plate. After incubating for 1 h at room temperature the solution was removed and the plate washed 4× with PBS at 4° C. 200 μL/well of scintillant is added and the plate then read in a Wallac microbeta counter. The inhibition data is processed by standard methods to calculate an inhibition constant Ki for the test compound.

In data set [2] the target is T2, IBAT. In words: In vitro uptake by CHO cells transfected with IBAT, evaluated by LC-MS/MS. Format: cell-based. Conditions: 0.06 to 1000 μM, 10 min. More on the design: expressed in transfected cells; host or cells: CHO cells. On the procedure:
Active transport of (4) by the bile acid transport system was evaluated in vitro by incubation of (4) or glycocholate (control substrate) with untransfected CHO K1 cells or CHO cells transfected with either IBAT or LBAT. Cells (10^5 cells/mL) were incubated in 96 well plates with varying concentrations (0.06 to 1000 μM) of (4) or glycocholate for 10 min. Cells were then washed with Hank's Balanced Salt Solution (HBSS) and lysed and extracted by addition of 100 μL of water followed by sonication. Concentrations of (4) or glycocholate in cell extracts were determined by direct injection onto an API 2000 LC/MS/MS equipped with an Agilent 1100 binary pump and autosampler. Separation was achieved using a Keystone BDS Hypersil 2×50 mm column heated to 45° C. during the analysis. The mobile phases were: 0.1% formic acid in water (A) and 0.1% formic acid in acetonitrile (B). The gradient condition was: 5% B for 1 min, increasing to 90% B in 0.2 min, maintained for 2.8 min and returning to 5% B for 2 min. A TurboIonSpray source was used on the API 2000. The analysis was performed in the positive ion mode and MRM transitions of 466/412 and 562/154 were used in the analysis of glycocholate and (4), respectively. Ten microliters of the cell extracts were injected. Peaks were integrated using Analyst quantitation software. […]

The values below come from patent US20050054559A1, “Compounds for sustained release of orally delivered drugs” (priority 2000, published 2005).

Molecules are shown by their SMILES.

T2 sequence (Q12908 whole entry): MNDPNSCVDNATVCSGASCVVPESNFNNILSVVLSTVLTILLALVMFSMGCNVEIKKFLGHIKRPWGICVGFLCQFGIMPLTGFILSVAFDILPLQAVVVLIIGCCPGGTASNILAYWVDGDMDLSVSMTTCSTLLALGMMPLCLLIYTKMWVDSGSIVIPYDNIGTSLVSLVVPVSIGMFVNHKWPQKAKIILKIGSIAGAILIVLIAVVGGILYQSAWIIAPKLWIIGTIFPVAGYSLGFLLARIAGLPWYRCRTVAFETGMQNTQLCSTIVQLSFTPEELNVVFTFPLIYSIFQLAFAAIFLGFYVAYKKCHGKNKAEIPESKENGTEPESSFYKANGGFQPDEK
Cholylglycine Hydrolase, sequence (P54965 whole entry, looked up): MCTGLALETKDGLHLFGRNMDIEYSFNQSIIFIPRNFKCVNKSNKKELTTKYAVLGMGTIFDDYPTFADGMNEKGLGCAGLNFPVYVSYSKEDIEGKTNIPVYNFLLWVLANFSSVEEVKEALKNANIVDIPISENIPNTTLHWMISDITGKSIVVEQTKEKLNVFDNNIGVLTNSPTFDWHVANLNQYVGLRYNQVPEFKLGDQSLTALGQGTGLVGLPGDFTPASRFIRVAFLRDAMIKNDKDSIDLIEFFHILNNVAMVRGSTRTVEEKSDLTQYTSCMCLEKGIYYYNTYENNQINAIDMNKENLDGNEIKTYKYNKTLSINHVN

Turning to `CC(CCC(=O)NCC1(CC(=O)O)CCCCC1)C1CCC2C3C(O)CC4CC(O)CCC4(C)C3CC(O)C12C` (centres unmarked) [Compound (4)], the “release of gabapentin catalyzed by cholylglycine hydrolase (in words)” value at Cholylglycine Hydrolase is given as “Substantially faster release”. The same molecule gave a concentration giving a half-maximal response (EC50) at LBAT of 19 µM. Moreover, the “% Max. (GDC)” value on LBAT (relative to glycodeoxycholate) was 38%. On IBAT [1], this molecule had an IC50 of 36 µM. The “Active uptake by bile acid transport system” value on IBAT [2] is recorded as “Active uptake”.
